The values below come from patent US6924302B2, “Substituted triazole diamine derivatives as kinase inhibitors” (Ortho McNeil Pharmaceutical, Inc., priority 2000, dated 2005).

By IC50 is commonly meant the concentration that inhibits the measured activity by half. A high value points to weaker potency.

Bounds are passed on as bounds.

The subject of assay [1] is SK-OV-3 ovarian adenocarcinoma. The assay can be described thus: Inhibition of Cell Proliferation (14C-thymidine incorporation), SK-OV-3. The assay is classed as cell-based. As to conditions: Homo sapiens, SK-OV-3 cell line. The protocol: The ability of a test compound to inhibit the proliferation of cell growth was determined by measuring incorporation of ^14C-labelled thymidine into newly synthesized DNA within the cells. […] Cells were trypsinized and counted and 3000-8000 cells were added to each well of a 96-well CytoStar tissue culture treated scintillating microplate (Amersham #RPNQ0160) in complete medium in a volume of 100 μl. Cells were incubated for 24 hours in complete medium at 37° C. in an atmosphere containing 5% CO2. Next, 1 μl of test compound in 100% DMSO was added to the wells of the plate. DMSO only was added to control wells. Cells were incubated for 24 more hours in complete medium at 37° C. in an atmosphere containing 5% CO2. […] The plate was incubated for 24 hours at 37° C. plus 5% CO2 in drug plus ^14C-thymidine. The contents of the plate were discarded into a ^14C radioactive waste container by inverting the plate and the plate was washed twice with 200 μl PBS. 200 μl of PBS is added to each well. […] The degree of methyl ^14C-thymidine incorporation was quantified on a Packard Top Count.

Assay [2] concerns PC-3 prostate adenocarcinoma. The assay can be described thus: Inhibition of Cell Proliferation (14C-thymidine incorporation), PC-3. The format is cell-based. As to conditions: Homo sapiens, PC-3 cell line. The protocol:
(§1) The ability of a test compound to inhibit the proliferation of cell growth was determined by measuring incorporation of ^14C-labelled thymidine into newly synthesized DNA within the cells. This method was used on cell lines derived from carcinomas originating from several tissues such as HeLa cervical adenocarcinoma (American Type Culture Collection (ATCC), Virginia, Cat. #CCL-2), A375 malignant melanoma (ATCC CRL-1619), SK-OV-3 ovarian adenocarcinoma (ATCC HTB-77) HCT-116 colon carcinoma (CCL-247), PC-3 prostate adenocarcinoma (ATCC CRL-1435), and MDA-MB-231 (Xenogen Corp.) In this way the effect of a compound on cell growth of cells with many different phenotypes can be determined. Cells were trypsinized and counted and 3000-8000 cells were added to each well of a 96-well CytoStar tissue culture treated scintillating microplate (Amersham #RPNQ0160) in complete medium in a volume of 100 μl. Cells were incubated for 24 hours in complete medium at 37° C. in an atmosphere containing 5% CO2. Next, 1 μl of test compound in 100% DMSO was added to the wells of the plate. DMSO only was added to control wells. Cells were incubated for 24 more hours in complete medium at 37° C. in an atmosphere containing 5% CO2. Methyl ^14C-thymidine 56 mCi/mmol (NEN #NEC568 or Amersham #CFA532) was diluted in complete medium and 0.2 uCi/well was added to each well of the CytoStar plate in a volume of 20 μl. The plate was incubated for 24 hours at 37° C. plus 5% CO2 in drug plus ^14C-thymidine. The contents of the plate were discarded into a ^14C radioactive waste container by inverting the plate and the plate was washed twice with 200 μl PBS. 200 μl of PBS is added to each well. The top of the plate was sealed with a transparent plate sealer and a white plate backing sealer (Packard #6005199) was applied to the bottom of the plate. The degree of methyl ^14C-thymidine incorporation was quantified on a Packard Top Count.

The next assay deals with A375 malignant melanoma. The assay can be described thus: Inhibition of Cell Proliferation (14C-thymidine incorporation), A375. The following applies: Homo sapiens, A-375, A375 cell line. The format is cell-based. As to the method: as §1
The target in the next assay is FGF-R2 (Homo sapiens, UniProt P21802). The assay can be described thus: Kinase Selectivity Assay FGF-R2. The format is biochemical. The following applies: Tables 2a-2k. The protocol: Assays to test compound inhibition of other kinases were preformed using methods that measure the amount of phosphorylation of a biotinylated peptide substrate. Biotinylated peptide substrates were selected from the literature as appropriate for the enzyme being evaluated. […] Assay conditions vary slightly for each protein kinase, for example, insulin receptor kinase requires 10 mM MnCl2 for activity and Calmodulin-dependent protein kinase requires calmodulin and 10 mM CaCl2. These assay conditions are known in the art. The reaction mixture was dispensed into the wells of a streptavidin coated Flashplate and 1 μl drug stock in 100% DMSO was added to a 100 μl reaction volume resulting in a final concentration of 1% DMSO on the reaction. Enzyme was diluted in 50 mM Tris-HCl pH=8.0, 0.1% BSA and add to each well. The reaction was incubated for one hour at 30° C. in the presence of compound. After one hour the reaction mix was aspirated from the plate and the plate was washed with PBS containing 100 mM EDTA. The plate was read on a scintillation counter to determine ^33P-γ-ATP incorporated into the immobilized peptide. Test compounds were assayed in duplicate at 8 concentrations [100 uM, 10 uM, 1 uM, 100 nM, 10 nM, 1 nM, 100 pM, 10 pM]. A maximum and minimum signal for the assay was determined on each plate. The IC50 was calculated from the dose response curve of the percent inhibition of the maximum signal in the assay according to the formula [max signal—background/test compound signal—background (100)=% inhibition] by graphing the percent inhibition against the log concentration of test compound. Known inhibitor compounds appropriate for the kinase being assayed were also included on each plate.

Assay [3] has as its target T1, CDK2 in complex with cyclin A (Homo sapiens, UniProt P24941).
T1 construct: purchased Upstate Biotech
The assay can be described thus: Kinase Selectivity Assay CDK2. The assay is classed as biochemical. As to conditions: Table 1. The method, boiled down:
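Biotinylated peptide phosphorylation measured as ^33P-γ-ATP incorporation on streptavidin plates after 1 h at 30° C, 1% DMSO final, enzyme in 50 mM Tris-HCl pH 8.0, 0.1% BSA. Compounds in duplicate at 8 concentrations, 100 uM to 10 pM. IC50 from percent inhibition versus log concentration.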

Chain of FGF-R2 (P21802 22-821, species assumed): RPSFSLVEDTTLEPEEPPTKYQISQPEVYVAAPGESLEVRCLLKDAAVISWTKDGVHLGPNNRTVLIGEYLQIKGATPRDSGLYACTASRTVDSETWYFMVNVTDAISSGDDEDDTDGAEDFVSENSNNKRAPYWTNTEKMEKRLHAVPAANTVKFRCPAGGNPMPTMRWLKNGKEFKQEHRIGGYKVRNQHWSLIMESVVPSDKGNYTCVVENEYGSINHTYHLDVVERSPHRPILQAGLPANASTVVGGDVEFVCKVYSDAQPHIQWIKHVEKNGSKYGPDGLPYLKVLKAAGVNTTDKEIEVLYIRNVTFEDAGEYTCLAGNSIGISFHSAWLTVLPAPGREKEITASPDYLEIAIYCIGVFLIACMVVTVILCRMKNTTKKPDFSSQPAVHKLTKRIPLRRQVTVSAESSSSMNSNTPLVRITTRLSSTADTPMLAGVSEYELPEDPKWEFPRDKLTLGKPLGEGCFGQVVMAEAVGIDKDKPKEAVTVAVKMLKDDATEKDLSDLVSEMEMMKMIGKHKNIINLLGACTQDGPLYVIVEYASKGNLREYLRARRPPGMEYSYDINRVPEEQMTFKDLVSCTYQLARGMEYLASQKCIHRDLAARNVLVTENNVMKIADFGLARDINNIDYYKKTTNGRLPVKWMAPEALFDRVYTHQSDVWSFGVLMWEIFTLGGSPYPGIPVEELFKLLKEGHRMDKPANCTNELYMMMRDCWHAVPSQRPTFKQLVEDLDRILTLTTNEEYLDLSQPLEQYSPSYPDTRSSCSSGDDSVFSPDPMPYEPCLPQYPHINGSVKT

In the case of `Nc1nc(Nc2ccc(S(N)(=O)=O)cc2)nn1C(=O)c1sccc1F` [Cpd 16, 4-[[5-amino-1-[(3-fluoro-2-thienyl)carbonyl]-1H-1,2,4-triazol-3-yl]amino]-benzenesulfonamide], the IC50 in assay [1] stood at 2110 nM; in assay [2] it was 368 nM; in the assay with A375 malignant melanoma, 942 nM.
Consider `Nc1nc(Nc2ccc(S(N)(=O)=O)cc2)nn1C(=O)c1sccc1Cl` [Cpd 17, 4-[[5-amino-1-[(3-chloro-2-thienyl)carbonyl]-1H-1,2,4-triazol-3-yl]amino]-benzenesulfonamide], for which the 50% inhibitory concentration (IC50) in assay [1] worked out at 3900 nM; in assay [2] it was 294 nM; in the assay with A375 malignant melanoma, 4970 nM.
As for `Nc1nc(Nc2ccc(S(N)(=O)=O)cc2)nn1C(=O)c1ccsc1` [Cpd 30, 4-[[5-amino-1-(3-thienylcarbonyl)-1H-1,2,4-triazol-3-yl]amino]-benzenesulfonamide], the half-maximal inhibitory concentration (IC50) in assay [1] is 5750 nM; in assay [2], 951 nM; with A375 malignant melanoma, 8240 nM.
For `CC(C)(C)c1ccc(C(=O)n2nc(Nc3ccc(S(N)(=O)=O)cc3)nc2N)s1` [Cpd 51, 4-[[5-amino-1-[[5-(1,1-dimethylethyl)-2-thienyl]carbonyl]-1H-1,2,4-triazol-3-yl]amino]-benzenesulfonamide], the IC50 in assay [2] is 57 nM; in the assay with A375 malignant melanoma, 333 nM.
In the case of `Cc1ccccc1C(=O)n1nc(Nc2ccc(S(N)(=O)=O)cc2)nc1N` [Cpd 57, 4-[[5-amino-1-(2-methylbenzoyl)-1H-1,2,4-triazol-3-yl]amino]-benzenesulfonamide], the 50% inhibitory concentration (IC50) with A375 malignant melanoma was 113 nM.
With `CC(O)c1ccc(F)c(C(=O)n2nc(Nc3ccc(S(N)(=O)=O)cc3)nc2N)c1F` (centres unmarked) [Cpd 58, 4-[[5-amino-1-[2,6-difluoro-3-(1-hydroxyethyl)benzoyl]-1H-1,2,4-triazol-3-yl]amino]-benzenesulfonamide], the IC50 at FGF-R2 is 96 nM; in assay [2] it was 362 nM; with A375 malignant melanoma, 981 nM.
As to `Cc1ccc(F)c(C(=O)n2nc(Nc3ccc(S(N)(=O)=O)cc3)nc2N)c1Cl` [Cpd 69, 4-[[5-amino-1-(2-chloro-6-fluoro-3-methylbenzoyl)-1H-1,2,4-triazol-3-yl]amino]-benzenesulfonamide], the half-maximal inhibitory concentration (IC50) against FGF-R2 amounted to 365 nM; in assay [2] it was 8 nM; in the assay with A375 malignant melanoma, 441 nM.
Taken in the same sequence, the figures for `Nc1nc(Nc2ccc(S(N)(=O)=O)cc2)nn1C(=O)c1c(F)cccc1Cl` [Cpd 70, 4-[[5-amino-1-(2-chloro-6-fluorobenzoyl)-1H-1,2,4-triazol-3-yl]amino]-benzenesulfonamide] were 273 nM, 11 nM and 1100 nM.
Turning to `CN1CCN(c2ccc(Nc3nc(N)n(C(=O)c4c(F)cccc4F)n3)cc2)CC1` [Cpd 71, 1-(2,6-difluorobenzoyl)-N^3-[4-(4-methyl-1-piperazinyl)phenyl]-1H-1,2,4-triazole-3,5-diamine], the concentration for half-maximal inhibition (IC50) on FGF-R2 was 441 nM; in assay [2], 25 nM.
As for `CNS(=O)(=O)c1ccc(Nc2nc(N)n(C(=O)c3c(F)cccc3F)n2)cc1` [Cpd 80, 4-[[5-amino-1-(2,6-difluorobenzoyl)-1H-1,2,4-triazol-3-yl]amino]-N-methyl-benzenesulfonamide], the IC50 in assay [1] came to 16300 nM; in assay [2], 272 nM.
For `CNS(=O)(=O)c1ccc(Nc2nc(N)n(C(=O)c3sccc3C)n2)cc1` [Cpd 82, 4-[[5-amino-1-[(3-methyl-2-thienyl)carbonyl]-1H-1,2,4-triazol-3-yl]amino]-N-methyl-benzenesulfonamide], the IC50 is 89 nM at FGF-R2, 921 nM in assay [1] and 15 nM in assay [2].
For the compound `CCc1ccc(C(=O)n2nc(Nc3ccc(S(=O)(=O)NCCN(C)C)cc3)nc2N)s1` [Cpd 103, 4-[[5-amino-1-[(5-ethyl-2-thienyl)carbonyl]-1H-1,2,4-triazol-3-yl]amino]-N-[2-(dimethylamino)ethyl]-benzenesulfonamide], the IC50 on FGF-R2 worked out at 170 nM; in assay [3], 1 nM; with A375 malignant melanoma, 115 nM.
With `Cc1ccsc1C(=O)n1nc(Nc2ccc(S(=O)(=O)NCCN(C)C)cc2)nc1N` [Cpd 104, 4-[[5-amino-1-[(3-methyl-2-thienyl)carbonyl]-1H-1,2,4-triazol-3-yl]amino]-N-[2-(dimethylamino)ethyl]-benzenesulfonamide], the IC50 on FGF-R2 came to 200 nM; in assay [3], 1 nM; with A375 malignant melanoma, 108 nM.
On to `Cc1cc(C)c(C(=O)n2nc(Nc3ccc(NS(C)(=O)=O)cc3)nc2N)s1` [Cpd 108, N-[4-[[5-amino-1-[(3,5-dimethyl-2-thienyl)carbonyl]-1H-1,2,4-triazol-3-5 yl]amino]phenyl]-methanesulfonamide], for which the half-maximal inhibitory concentration (IC50) on FGF-R2 is 307 nM; in assay [3], 12 nM.
Consider `Cc1ccsc1C(=O)n1nc(Nc2ccc(N3CCNC3=O)cc2)nc1N` [Cpd 113, 1-[4-[[5-amino-1-[(3-methyl-2-thienyl)carbonyl]-1H-1,2,4-triazol-3-yl]amino]phenyl]-2-imidazolidinone], for which it took 281 nM to reach half-maximal inhibition in assay [1] (IC50).
Consider `Cc1ccsc1C(=O)n1nc(Nc2ccc(N3CCCS3(=O)=O)cc2)nc1N` [Cpd 116, N^3-[4-(1,1-dioxido-2-isothiazolidinyl)phenyl]-1-[(3-methyl-2-thienyl)carbonyl]-1H-1,2,4-triazole-3,5-diamine], for which the half-maximal inhibitory concentration (IC50) in assay [3] was 1 nM; in the assay with A375 malignant melanoma, 639 nM.
Taken in the same sequence, the figures for `Nc1nc(Nc2ccc(N3CCCS3(=O)=O)cc2)nn1C(=O)c1c(F)cccc1F` [Cpd 117] were 7 nM and 2190 nM.
Taken in the same sequence, the figures for `Nc1nc(Nc2ccc(S(=O)(=O)Nc3ccccn3)cc2)nn1C(=O)c1c(F)cccc1F` [Cpd 118, 4-[[5-amino-1-(2,6-difluorobenzoyl)-1H-1,2,4-triazol-3-yl]amino]-N-(2-pyridinyl)-benzenesulfonamide] were 21 nM and 1620 nM.
Taken in the same sequence, the figures for `Cc1cc(C)c(C(=O)n2nc(Nc3ccc(S(=O)(=O)Nc4ccccn4)cc3)nc2N)s1` [Cpd 120] were 9 nM and 259 nM.
With `Cc1ccc(F)c(C(=O)n2nc(N)nc2Nc2ccc(S(N)(=O)=O)cc2)c1F` [Cpd 123, 4-[[3-amino-1-(2,6-difluoro-3-methylbenzoyl)-1H-1,2,4-triazol-5-yl]amino]-benzenesulfonamide], the IC50 in assay [3] was 31 nM; with A375 malignant melanoma, over 10000 nM.
